Experimental findings from patent US20250222028A1, “ENGINEERED IMMUNE CELL PLATFORM” (Cancer Research Technology Limited, priority 2022, published 2025) are described below.

The subject of this series is CD8+ T cells. As to the kind of experiment: Flow cytometric analysis of viability, proliferation and memory subsets of CD8+ T cells. Format: cell-based. The settings on record: 10 μM, 24 h. As for the experimental part:
FIG. 11. […] Naïve CD8+ T cells were stimulated with plate-bound anti-CD3/CD28 antibodies for 24 h in the presence of 10 μM FPL64176 or carrier control before flow cytometric analysis (FIG. 11A-D). (A) Quantitative analysis of live cell numbers. (B) Percentage of cells positive for the apoptotic marker Apotracker™ Green. (C) Percentage of cells positive for cell viability dye DAPI. (D) Analysis of T cell subsets based on the expression of CD44 and CD62L: CD44− CD62L+ (naïve), CD44+ CD62L+ (central memory), and CD44+ CD62L− (effector memory). (FIG. 11E-G) CTLs were restimulated on day 10 with plate-bound anti-CD3 antibody for 24 h in the presence of 10 μM FPL64176 or carrier control before flow cytometric analysis. (E) Quantitative analysis of live cell numbers. (F) Percentage of cells positive for the apoptotic marker Apotracker™ Green. (G) Percentage of cells positive for the cell viability dye DAPI. […]
To ensure that the use of L-type Cav agonist is not adversely affecting immune cells, general cell functions were assessed. […]
(In flow cytometry, cells or beads pass a laser one at a time.)

Molecules are shown by their SMILES.

As for `COC(=O)c1c(C)[nH]c(C)c1C(=O)c1ccccc1Cc1ccccc1` [FPL 64176], the “memory phenotypes (CD44/CD62L subsets)” value (naïve CD8+ T cells stimulated with anti-CD3/CD28) was “does not affect”. In addition, the “viability or proliferation of naïve and cytotoxic CD8+ T cells” value (live cell numbers, Apotracker Green, DAPI) is on record as “does not impair”.
